According to patent US11559528B2, “BACE1 inhibition for the treatment of cancer” (The Cleveland Clinic Foundation, priority 2019, dated 2023):

Assays:
[1] = patients, Phase I to Phase III; cited from earlier work
[2] = test system: H1002 and H146 lung cancer cells; assay: Cell titer viability assay on lung cancer cells; assay type: cell-based, human; conditions: indicated concentrations, 72 hours, n=3
Protocol: (A) Effects of BACE1 inhibitors on lung cancer cell proliferation. H1002 and H146 lung cancer cells were treated with the indicated concentrations of the BACE1 inhibitor AZD3293, MK-8931, AZD3839, or PF-06751979 (PF) for 72 hours. Cell viability was assessed by cell titer assay (n=3). (B-D) A preclinical trial of MK-8931 for lung cancer treatment in xenograft models. H1002 lung cancer cells (5×106) were transplanted into mouse right flank through subcutaneous injection to establish subcutaneous lung cancer xenografts. […] Tumors dissected from mice of each group were photographed (C) and weighed (D). […] Data are shown as mean SEM. p **<0.01, Student's t-test.

[3] = test system: iPSC-derived M2 macrophages; assay: Fluorescent phagocytosis screening assay, iPSC-derived M2 macrophages against glioma cells; assay type: cell-based, human; conditions: for screen of drug libraries and known inhibitors for promoters of macrophage phagocytosis: hit: glioma cells and lung ADC cells

Compound	tolerability / safety in AD clinical trials [1]	lung cancer cell proliferation (cell viability) [2]	macrophage phagocytosis against cancer cells [3]	screen of drug libraries and known inhibitors for promoters of macrophage phagocytosis: hit [3]
CC#Cc1cncc(-c2ccc3c(c2)[C@@]2(N=C(C)C(N)=N2)[C@]2(CC[C@@H](OC)CC2)C3)c1 [AZD3293]	very safe for patients	suppressed lung cancer cell proliferation	promotes macrophage phagocytosis against cancer cells	hits
NC1=N[C@@](c2cccc(-c3cncnc3)c2)(c2ccnc(C(F)F)c2)c2cccc(F)c21 [AZD3839]	–	suppressed lung cancer cell proliferation	–	hits
Cn1cnc2c(F)c(Nc3ccc(Br)cc3Cl)c(C(=O)NOCCO)cc21 [AZD6244]	–	–	–	hits
C[C@@]1(c2nc(NC(=O)c3ncc(C(F)(F)F)cc3Cl)ccc2F)CO[C@@](C)(C(F)(F)F)C(N)=N1 [CNP520]	very safe for patients	–	promotes macrophage phagocytosis against cancer cells	hits
NC1=N[C@@]2(c3cc(NC(=O)c4cnc(C(F)F)cn4)ccc3F)CO[C@H](C(F)(F)F)[C@H]2CS1 [E2609]	–	–	promotes macrophage phagocytosis against cancer cells	hits
C[C@@]1(c2cc(NC(=O)c3ccc(C#N)cn3)ccc2F)C=CSC(N)=N1 [JNJ-54861911]	–	–	–	hits
CS[C@@]1(C(=O)Nc2ccc3[nH]nc(-c4ccc(OC(C)C)nc4)c3c2)CCN(CC(=O)N2CC=C(c3ccc(-c4ncn(C)n4)cc3)CC2)C1 [MK-8353]	–	–	–	hits
C[C@H]1C[C@H]2CSC(N)=N[C@@]2(c2nc(NC(=O)c3ccc(OC(F)F)cn3)cs2)CO1 [PF-06751979]	–	suppressed lung cancer cell proliferation	–	hits
